Results: US20140187559A1, “INHIBITORS OF THE FIBROBLAST GROWTH FACTOR RECEPTOR” (BLUEPRINT MEDICINES CORPORATION, priority 2012, published 2014)
pIC50: −log10 of the molar value.

Target: T1, wild type FGFR-4 (Homo sapiens, UniProt P22455)
T1 construct: purchased Carna Biosciences, Inc
Experiment: FGFR-4 wild type assay at Km (Caliper mobility shift)
Assay type: biochemical
Conditions: for Ratio FGFR1/FGFR4: [IC50 for FGFR1]/[IC50 for FGFR4]; for pIC50: 400 uM ATP, 25 C, 90 minutes, read-out: FGFR4 IC50
Procedure: In order to assess the activity of chemical compounds against the relevant kinase of interest, the Caliper LifeSciences electrophoretic mobility shift technology platform is utilized. Fluorescently labeled substrate peptide is incubated in the presence dosed levels of compounds, a set concentration of kinase and of ATP, so that a reflective proportion of the peptide is phosphorylated. At the end of the reaction, the mix of phosphorylated (product) and non-phosphorylated (substrate) peptides are passed through the microfluidic system of the Caliper LabChip® EZ Reader II, under an applied potential difference. The presence of the phosphate group on the product peptide provides a difference in mass and charge between the product peptide and the substrate peptide, resulting in a separation of the substrate and product pools in the sample. As the pools pass the LEDS within the instrument, these pools are detected and resolved as separate peaks. The ratio between these peaks therefore reflects the activity of the chemical matter at that concentration in that well, under those conditions.
The reaction was stopped by the addition of 70 ul of Stop buffer (100 mM HEPES pH 7.5, 0.015% Brij 35, 35 mM EDTA and 0.2% of Coating Reagent 3 (Caliper Lifesciences)). The plate was then read on a Caliper LabChip® EZ Reader II (protocol settings: —1.9 psi, upstream voltage—700, downstream voltage—3000, post sample sip 35 s).

T1 sequence (P22455 22-802): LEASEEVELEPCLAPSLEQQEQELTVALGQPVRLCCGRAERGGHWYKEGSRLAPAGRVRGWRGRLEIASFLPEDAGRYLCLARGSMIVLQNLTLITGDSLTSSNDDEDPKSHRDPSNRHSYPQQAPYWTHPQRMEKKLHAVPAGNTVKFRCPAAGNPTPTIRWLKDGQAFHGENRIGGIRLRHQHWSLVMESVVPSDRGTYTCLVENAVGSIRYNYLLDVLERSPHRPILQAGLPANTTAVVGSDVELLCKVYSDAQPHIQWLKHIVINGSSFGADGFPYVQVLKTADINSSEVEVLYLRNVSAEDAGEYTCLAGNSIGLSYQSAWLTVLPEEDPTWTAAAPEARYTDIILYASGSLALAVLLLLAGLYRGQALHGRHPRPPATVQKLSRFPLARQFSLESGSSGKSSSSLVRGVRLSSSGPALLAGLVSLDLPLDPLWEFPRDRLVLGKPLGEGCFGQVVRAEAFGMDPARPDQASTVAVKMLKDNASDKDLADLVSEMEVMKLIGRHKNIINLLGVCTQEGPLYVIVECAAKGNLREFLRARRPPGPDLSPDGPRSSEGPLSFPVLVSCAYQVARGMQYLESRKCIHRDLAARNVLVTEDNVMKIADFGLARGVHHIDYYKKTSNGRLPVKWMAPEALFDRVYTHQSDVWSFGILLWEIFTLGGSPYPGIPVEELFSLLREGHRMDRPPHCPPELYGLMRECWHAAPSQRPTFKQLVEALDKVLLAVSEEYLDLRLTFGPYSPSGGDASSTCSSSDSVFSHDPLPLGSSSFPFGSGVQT

Row | SMILES | Ratio FGFR1/FGFR4 | pIC50
1 | C=CC(=O)N(C)c1ncc2cc(-c3cc(OC)cc(OC)c3)ccc2n1 [COMPOUND 1] | C (the ratio is ≧100 and <200) | –
2 | C=CC(=O)N(C)c1ncc2cc(-c3c(Cl)cccc3Cl)ccc2n1 [COMPOUND 2] | D (the ratio is ≧50 and <100) | 6.00 to 7.00
3 | C=CC(=O)N(C)c1ncc2c(n1)N(C)C(=O)N(c1cc(OC)cc(OC)c1)C2 [COMPOUND 5] | – | 7.00 to 8.00
4 | C=CC(=O)Nc1cccc(C)c1Nc1ncc(C#Cc2cc(OC)cc(OC)c2)cn1 [COMPOUND 6, N-(2-((5-((3,5-dimethoxyphenyl)ethynyl)pyrimidin-2-yl)amino)-3-methylphenyl)acrylamide] | – | 6.00 to 7.00
5 | C=CC(=O)Nc1cccc(C)c1Nc1ncc2cc(-c3cc(C(N)=O)ccc3F)ccc2n1 [COMPOUND 9] | D (the ratio is ≧50 and <100) | 6.00 to 7.00
6 | C=CC(=O)Nc1cccc(C)c1Nc1ncc2cc(-c3cc(OC)cc(OC)c3)cnc2n1 [COMPOUND 10, N-(2-((6-(3,5-dimethoxyphenyl)pyrido[2,3-d]pyrimidin-2-yl)amino)-3-methylphenyl)acrylamide] | E (the ratio is ≧10 and <50) | –
7 | C=CC(=O)Nc1ccccc1Nc1nccc(N2CCCC(NS(=O)(=O)CCC)C2)n1 (stereo not drawn) [COMPOUND 11, N-(2-((4-(3-(propylsulfonamido)piperidin-1-yl)pyrimidin-2-yl)amino)phenyl)acrylamide] | – | 6.00 to 7.00
8 | C=CC(=O)Nc1cccc(C)c1Nc1ncc2cc(-c3c(Cl)cccc3Cl)ccc2n1 [COMPOUND 13] | D (the ratio is ≧50 and <100) | 7.00 to 8.00
9 | C=CC(=O)Nc1ccccc1Nc1cc2c(cn1)cc(-c1cc(OC)cc(OC)c1)c(=O)n2C [COMPOUND 15] | B (the ratio is ≧200 and <500) | 7.00 to 8.00
10 | C=CC(=O)Nc1cccc(C)c1Nc1ncc2cc(-c3c(Cl)ccc(OC)c3F)ccc2n1 [COMPOUND 17A] | E (the ratio is ≧10 and <50) | 7.00 to 8.00
11 | C=CC(=O)Nc1cccc(Cl)c1Nc1ncc2cc(-c3cc(C(N)=O)ccc3C)ccc2n1 [COMPOUND 17] | B (the ratio is ≧200 and <500) | 7.00 to 8.00
12 | C#CC(=O)NCc1cccn2c(-c3cc(NC(=O)NCC(F)(F)F)cc(OC(C)C)c3)cnc12 [COMPOUND 20, N-((3-(3-isopropoxy-5-(3-(2,2,2-trifluoroethyl)ureido)phenyl)imidazo[1,2-a]pyridin-8-yl)methyl)propiolamide] | – | 7.00 to 8.00
13 | C=CC(=O)Nc1ccccc1-c1ccn2c(-c3cccc(NC(=O)NCC(F)(F)F)c3)cnc2c1 [COMPOUND 21, N-(2-(3-(3-(3-(2,2,2-trifluoroethyl)ureido)phenyl)imidazo[1,2-a]pyridin-7-yl)phenyl)acrylamide] | B (the ratio is ≧200 and <500) | 6.00 to 7.00
14 | C=CC(=O)Nc1cccc(C)c1Nc1ncc2cc(-c3c(Cl)cccc3Cl)c(=O)n(C)c2n1 [COMPOUND 22] | B (the ratio is ≧200 and <500) | 7.00 to 8.00
15 | C=CC(=O)Nc1cccc(C)c1Nc1ncc(C#Cc2c(Cl)c(OC)cc(OC)c2Cl)cn1 [COMPOUND 24, N-(2-((5-((2,6-dichloro-3,5-dimethoxyphenyl)ethynyl)pyrimidin-2-yl)amino)-3-methylphenyl)acrylamide] | – | 7.00 to 8.00
16 | C=CC(=O)Nc1cccc(C)c1Oc1ncc2cc(-c3c(Cl)c(OC)cc(OC)c3Cl)ccc2n1 [COMPOUND 25A] | D (the ratio is ≧50 and <100) | 6.00 to 7.00
17 | C=CC(=O)Nc1cc(F)cc(C)c1Nc1ncc2cc(-c3c(Cl)c(OC)cc(OC)c3Cl)ccc2n1 [COMPOUND 32] | C (the ratio is ≧100 and <200) | –
18 | C=CC(=O)Nc1ccc(F)c(C)c1Nc1ncc2cc(-c3c(Cl)c(OC)cc(OC)c3Cl)ccc2n1 [COMPOUND 33] | – | 7.00 to 8.00
19 | C=CC(=O)Nc1cc(F)cc(F)c1Nc1ncc2cc(-c3c(Cl)c(OC)cc(OC)c3Cl)ccc2n1 [COMPOUND 36] | B (the ratio is ≧200 and <500) | 6.00 to 7.00
20 | C=CC(=O)Nc1cccc(C)c1Nc1cc2c(cn1)cc(-c1c(Cl)c(OC)cc(OC)c1Cl)c(=O)n2C [COMPOUND 39] | E (the ratio is ≧10 and <50) | –
